Laboratory results from patent US20230009608A1, “GRK2 INHIBITORS AND USES THEREOF” (Cygnal Therapeutics, Inc., priority 2020, published 2023).
Read-outs that look alike come from different tables or passages of the source.

Molecular target: T1, GRK2 (Homo sapiens, UniProt P25098)
T1 construct: purchased SignalChem A14-10G
T1 sequence (P25098 1-689): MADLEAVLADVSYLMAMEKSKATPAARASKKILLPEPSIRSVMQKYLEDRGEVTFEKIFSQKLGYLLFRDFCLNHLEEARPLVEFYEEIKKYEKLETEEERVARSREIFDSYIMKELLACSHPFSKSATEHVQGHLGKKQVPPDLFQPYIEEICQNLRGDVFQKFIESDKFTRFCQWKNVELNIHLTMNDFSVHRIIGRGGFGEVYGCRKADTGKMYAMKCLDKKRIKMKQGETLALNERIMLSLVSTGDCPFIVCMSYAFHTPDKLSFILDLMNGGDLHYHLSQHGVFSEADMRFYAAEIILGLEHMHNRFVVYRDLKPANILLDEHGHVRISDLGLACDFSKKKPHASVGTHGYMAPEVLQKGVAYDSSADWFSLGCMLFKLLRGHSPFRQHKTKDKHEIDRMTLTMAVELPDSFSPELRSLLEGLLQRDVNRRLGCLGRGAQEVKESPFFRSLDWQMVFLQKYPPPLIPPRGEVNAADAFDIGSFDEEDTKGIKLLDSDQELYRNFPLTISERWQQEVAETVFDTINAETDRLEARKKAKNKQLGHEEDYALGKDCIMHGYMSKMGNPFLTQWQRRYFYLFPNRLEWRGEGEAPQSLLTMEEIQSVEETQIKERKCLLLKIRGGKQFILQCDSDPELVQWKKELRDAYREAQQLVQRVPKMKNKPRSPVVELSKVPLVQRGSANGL
Experiment: ADPGlo GRK2 Inhibition Assay (Example 8)
Type: biochemical
Protocol: HTS was performed using 1 μM compound.
Compounds were dissolved in 100% DMSO, serially diluted tree-fold from 100 μM concentration to 46 nM and transferred (50 nL) into assay ready plate.
Materials: GRK2 was purchased from SignalChem (Cat #A14-10G, Lot #X^645-3). Substrate GRKtide was from SignalChem (Cat #G46-58, Lot #R339-6). ADP-Glo Kinase Assay from Promega (Cat #V9102). Assay buffer consisted of 25 mMv HEPES (pH7.5), 10 mMv MgCl2, 0.01% Tween-20, 1 mM DDT. 384-well white plates were from Greiner […] (Item #784075).
HTS protocol: Take 384 well plate with 50 nL of compound in columns 3-22/DMSO solution 1-2,23-24. Add 2.5 μL assay buffer to columns 23 and 24 using Thermo Scientific Multidrop Combi Dispenser. Add 2.5 μL of 2× enzyme solution (15 nM in 1× assay buffer) using Thermo Scientific Multidrop Combi Reagent Dispenser to all columns except of 23 and 24. Incubate for 15 minutes. Fill plate with 2.5 μL of 2× substrate mix (20 μM ATP and 0.6 mg/nt GRKtide in Ix assay buffer) using Thermo Scientific Multidrop Combi Reagent Dispenser. Spin 15 seconds at 1000 rpm and incubate for 180 min at room temperature. Add 5 μL ADP-Glo reagent to all the wells. Spin 15 seconds at 1000 rpm and incubate for 40 min at room temperature. Add 10 μL Detection solution to all the wells. Incubate for 30 min at room temperature. Read plate in Luminescent modeon BMG PheraStar FSX (gain=3600).
Data Analysis: Data were analyzed in GraphPad Prism 8.0.2. Each HTS plate contains compounds in columns 3-22, controls (enzyme, no compound) in columns 1 and 2, and blanks (no enzyme) in columns 23 and 24. HTS percent inhibition was calculated for each compound from the signal in luminescence units and the mean of the plate controls and the mean of the plate blanks using the following equation: % Inhibition=100*(1−((signal-blank mean)/(control mean-blank mean))). At the final stage of data processing, we obtain dose-response curves, tables and SDF-files with the results of screening for each substance.

[1] = ADPGlo GRK2 enzyme assay, read-out: A: Enzymatic GRK2: IC50 (nM) (Example 8)
[2] = 7.5 nM GRK2, 10 μM ATP, ADP-Glo, read-out: GRK2 IC50 (nM) (Example 8)
[3] = Enzyme Assay A, ADPGlo (Example 8), read-out: A: Enzymatic GRK2: IC50 (nM) (Example 8)

| IC50 [1] | SMILES | also measured |
| --- | --- | --- |
| 871 nM | Cn1c(CNc2cccc(C(=O)NCc3ccncc3OCC3CCOC3)c2)nnc1-c1ccncn1 (stereo not drawn) | – |
| 15.1 nM | CNS(=O)(=O)c1cccc(F)c1CNC(=O)c1ccnc(NCc2nnc(-c3ccncn3)n2C)c1 | – |
| – | CCC[C@H](NC(=O)c1cccc(NCc2nnc(-c3ccncn3)n2C)c1)c1ccccn1 [compound 21] | IC50 [2]: 67 nM |
| 194 nM | Cn1c(CNc2cccc(C(=O)NC3CCCS(=O)(=O)c4ccccc43)c2)nnc1-c1ccncn1 (stereo not drawn) | – |
| 253 nM | CN1CCc2ccccc2C(NC(=O)c2cccc(NCc3nnc(-c4ccncn4)n3C)c2)C1=O (stereo not drawn) | – |
| – | Cn1c(CNc2cccc(C(=O)NCc3ccc(Br)cn3)c2)nnc1-c1ccncn1 | IC50 [3]: 140 nM |
| 146 nM | Cn1c(CNc2cccc(C(=O)NC(CO)c3c(F)cccc3F)c2)nnc1-c1ccncn1 (stereo not drawn) | – |
| – | Cc1cc(CNC(=O)c2cccc(NCc3nnc(-c4ccncn4)n3C)c2)no1 | IC50 [3]: 110 nM |
| – | Cc1cccc2ncc(CNC(=O)c3cccc(NCc4nnc(-c5ccncn5)n4C)c3)n12 [compound 37] | IC50 [2]: 0.79 nM |
| 526 nM | Cn1c(CNc2cccc(C(=O)NCC3(c4ccccn4)CC3)c2)nnc1-c1ccncn1 | – |
| 192 nM | Cn1c(CNc2cccc(C(=O)NCc3cc4c(nc3O)CCCC4)c2)nnc1-c1ccncn1 | – |
| – | Cc1cccc(C(CO)NC(=O)c2cccc(NCc3nnc(-c4ccncn4)n3C)c2)c1 (stereo not drawn) [compound 39] | IC50 [2]: 1.1 nM |
| – | Cn1ccnc1C(NC(=O)c1cccc(NCc2nnc(-c3ccncc3)[nH]2)c1)C1CC1 (stereo not drawn) [compound 50] | IC50 [2]: 5.5 nM |
| 505 nM | Cc1ccccc1C(CN1CCOCC1)NC(=O)c1cccc(NCc2nnc(-c3ccncn3)n2C)c1 (stereo not drawn) | – |
| 271 nM | CCc1ccc(CNC(=O)c2cccc(NCc3nnc(-c4ccncn4)n3C)c2)nc1 | – |
| 85 nM | CN1CC[C@H](NC(=O)c2cccc(NCc3nnc(-c4ccncn4)n3C)c2)c2ccccc21 | – |
| – | Cn1c(CNc2cccc(C(=O)NCc3c[nH]cn3)c2)nnc1-c1ccncn1 | IC50 [3]: 110 nM |
| 62.5 nM | CNS(=O)(=O)c1ccccc1CNC(=O)c1cccc(NCc2nnc(-c3ccncn3)n2C)c1 | – |
| 504 nM | CCc1n[nH]c(=O)c(CNC(=O)c2cccc(NCc3nnc(-c4ccncn4)n3C)c2)c1CC | – |
| 511 nM | Cn1c(CNc2cccc(C(=O)NC(C)(CO)c3ccccn3)c2)nnc1-c1ccncn1 (stereo not drawn) | – |
| 340 nM | COc1cccc(CCNC(=O)c2cccc(NCc3nnc(-c4ccncn4)n3C)c2)c1 | – |
| – | Cc1ccc(C(CO)NC(=O)c2cccc(NCc3nnc(-c4ccncn4)n3C)c2)cc1 (stereo not drawn) [compound 46] | IC50 [2]: 3.3 nM |

| IC50 [1] | SMILES | also measured |
| --- | --- | --- |
| 136 nM | Cn1c(CNc2cccc(C(=O)NCc3ccccc3CN3CCC(O)C3)c2)nnc1-c1ccncn1 (stereo not drawn) | – |
| 732 nM | CC(Cc1nccn1C)NC(=O)c1cccc(NCc2nnc(-c3ccncn3)n2C)c1 (stereo not drawn) | – |
| 108 nM | Cc1ncc2c(n1)CCCC2NC(=O)c1cccc(NCc2nnc(-c3ccncn3)n2C)c1 (stereo not drawn) | – |
| 8.56 nM | COc1ccc([C@@H](C)NC(=O)c2cccc(NCc3nnc(-c4ccncn4)n3C)c2)c(OC)c1 | – |
| 132 nM | Cc1nnc(O)c(C(C)NC(=O)c2cccc(NCc3nnc(-c4ccncn4)n3C)c2)c1C (stereo not drawn) | – |
| – | COc1ccc(F)cc1CNC(=O)c1cccc(NCc2nnc(-c3ccncn3)n2C)c1 | IC50 [3]: 15 nM |
| – | COc1cccc([C@@H](C)NC(=O)c2cccc(NCc3nnc(-c4ccncn4)n3C)c2)c1 [compound 27] | IC50 [2]: 12 nM |
| – | Cn1c(CNc2cccc(C(=O)NCc3cccc(C#N)c3)c2)nnc1-c1ccncn1 [compound 43] | IC50 [2]: 2.7 nM |
| 133 nM | CNc1cccnc1CNC(=O)c1cccc(NCc2nnc(-c3ccncn3)n2C)c1 | – |
| – | Cn1nccc1CNC(=O)c1cccc(NCc2nnc(-c3ccncn3)n2C)c1 [compound 51] | IC50 [2]: 5.7 nM |
| 318 nM | Cn1c(CNc2cccc(C(=O)NCc3ncccc3-n3cccn3)c2)nnc1-c1ccncn1 | – |
| 103 nM | Cn1c(CNc2cccc(C(=O)NCc3cc(Br)cnc3O)c2)nnc1-c1ccncn1 | – |
| 181 nM | Cc1nc2c(c(C)c1CNC(=O)c1cccc(NCc3nnc(-c4ccncn4)n3C)c1)c(=O)[nH]n2C | – |
| 172 nM | Cn1c(CNc2cccc(C(=O)NCc3ncccc3S(C)(=O)=O)c2)nnc1-c1ccncn1 | – |
| – | Cn1c(CNc2cccc(C(=O)NC(CO)c3cc(F)ccc3F)c2)nnc1-c1ccncn1 (stereo not drawn) [compound 62] | IC50 [2]: 10 nM |
| – | Cn1c(CNc2cccc(C(=O)N[C@@H]3COCc4ccccc43)c2)nnc1-c1ccncc1 | IC50 [3]: 201 nM |
| – | Cn1c(CNc2cccc(C(=O)NC(CCO)c3ccc(F)cc3)c2)nnc1-c1ccncn1 (stereo not drawn) | IC50 [3]: 52 nM |
| – | C[C@H](NC(=O)c1cccc(NCc2nnc(-c3ccncn3)n2C)c1)c1cccnc1 [compound 22] | IC50 [2]: 420 nM |
| 177 nM | Cn1c(CNc2cccc(C(=O)NC(CO)c3ccccn3)c2)nnc1-c1ccncn1 (stereo not drawn) | – |
| – | COc1cccc([C@H](C)NC(=O)c2cccc(NCc3nnc(-c4ccncc4)n3C)c2)c1 | IC50 [3]: 117 nM |
| 18.7 nM | Cn1c(CNc2cc(C(=O)N[C@@H]3COCc4ccccc43)ccn2)nnc1-c1ccncn1 | – |
| 146 nM | Cn1c(CNc2cccc(C(=O)NCc3cccnc3-n3cccn3)c2)nnc1-c1ccncn1 | – |

| IC50 [1] | SMILES | also measured |
| --- | --- | --- |
| 310 nM | COc1ccc([C@H](C)NC(=O)c2cccc(NCc3nnc(-c4ccncn4)n3C)c2)c(OC)c1 | – |
| – | Cc1ccn2c(CNC(=O)c3cccc(NCc4nnc(-c5ccncn5)n4C)c3)cnc2c1 [compound 45] | IC50 [2]: 3 nM |
| – | Cn1c(CNc2cccc(C(=O)NCc3ccnc(OCC(F)(F)F)c3)c2)nnc1-c1ccncn1 [compound 19] | IC50 [2]: 17 nM |
| 145 nM | Cn1c(CNc2cccc(C(=O)NCc3ccccc3OCCN3CCOCC3)c2)nnc1-c1ccncn1 | – |
| 69.8 nM | CC(C)NS(=O)(=O)Cc1ccccc1CNC(=O)c1cccc(NCc2nnc(-c3ccncn3)n2C)c1 | – |
| – | Cc1cc(CNC(=O)c2cccc(NCc3nnc(-c4ccncn4)n3C)c2)c(C)n1-c1ccccc1 | IC50 [3]: 15 nM |
| 748 nM | Cn1c(CNc2cccc(C(=O)NC3(c4ncc[nH]4)CC3)c2)nnc1-c1ccncn1 | – |
| – | Cn1c(CNc2cccc(C(=O)NCc3ccc(S(C)(=O)=O)cn3)c2)nnc1-c1ccncn1 | IC50 [3]: 240 nM |
| 81.6 nM | COc1cccc([C@@H](C)NC(=O)c2cccc(NCc3nnc(-c4ccncc4)[nH]3)c2)c1 | – |
| – | Cc1cnc(CNC(=O)c2cccc(NCc3nnc(-c4ccncn4)n3C)c2)nc1 | IC50 [3]: 580 nM |
| > 1000 nM | C#COc1ccc(C(=O)c2ccc(OCCCCC(=O)NCCOCCOCCOc3cccc(CNC(=O)c4cccc(NCc5nnc(-c6ccncn6)n5C)c4)c3)cc2)cc1 | – |
| 950 nM | C[C@H](NC(=O)c1cccc(NCc2nnc(-c3ccncn3)n2C)c1)c1ccc(Cl)cn1 | – |
| – | COc1cccc(C2(NC(=O)c3cccc(NCc4nnc(-c5ccncn5)n4C)c3)CC2)c1F | IC50 [3]: 23 nM |
| – | CCOc1ccc(C(CO)NC(=O)c2cccc(NCc3nnc(-c4ccncn4)n3C)c2)cn1 (stereo not drawn) [compound 41] | IC50 [2]: 1.8 nM |
| – | Cn1c(CNc2cccc(C(=O)NC3CCOc4cccnc43)c2)nnc1-c1ccncn1 (stereo not drawn) [compound 60] | IC50 [2]: 9.6 nM |
| – | CC1Cc2cc(CNC(=O)c3cccc(NCc4nnc(-c5ccncn5)n4C)c3)ccc2O1 (stereo not drawn) [compound 32] | IC50 [2]: 22 nM |
| 283 nM | Cn1c(CNc2cccc(C(=O)NC3(CO)CCOc4ccccc43)c2)nnc1-c1ccncn1 (stereo not drawn) | – |
| – | Cn1c(CNc2cccc(C(=O)NCc3nc4ccccc4[nH]3)c2)nnc1-c1ccncn1 | IC50 [3]: 100 nM |
| – | CN1CCC(NC(=O)c2cccc(NCc3nnc(-c4ccncn4)n3C)c2)c2ccccc21 (stereo not drawn) [compound 16] | IC50 [2]: 37 nM |
| 176 nM | Cn1c(CNc2cccc(C(=O)NCc3cccnc3N3CCOCC3)c2)nnc1-c1ccncn1 | – |
| 135 nM | Cn1c(CNc2cccc(C(=O)NCc3cnn(C(C)(C)C)c3)c2)nnc1-c1ccncn1 | – |
| 103 nM | Cn1c(CNc2cccc(C(=O)NCc3ccc(CO)c(F)c3)c2)nnc1-c1ccncn1 | – |
